Data set [1] in a line: Lipophilicity, log P of the compound. To be noted: octanol/water. It is filed as physicochemical.
A short description of data set [2]: Dissociation constant, pKa of the compound. It is filed as physicochemical.

By logP is commonly meant the decadic logarithm of the partition coefficient of the neutral form, usually between octanol and water. A low value points to lower lipophilicity. For the molecule `CC(=O)N[C@@H](Cc1cc(F)cc(F)c1)[C@H](O)CNC1(c2cccc(C3CCCO3)c2)CCCCC1` (some centres undefined), the logP in data set [1] was determined as 4.
Still for that read-out and setting: next, `CC(=O)N[C@@H](Cc1cc(F)cc(F)c1)[C@H](O)CNC1(c2cccc(C3CCOC3)c2)CCCCC1` (some centres undefined): 4.
Broadly, the pKa is the pH at which an ionisable group is half protonated. A low value points to a stronger acid or weaker base. Take `CC(=O)N[C@@H](Cc1cc(F)cc(F)c1)[C@H](O)CNC1(c2cccc(C(C)(C)C)c2)CCCCC1`: in data set [1], the logP is 4.8. For the same molecule, the pKa in data set [2] was found to be 8.1.

The record behind these values is ChEMBL document CHEMBL1208773, “Improving the permeability of the hydroxyethylamine BACE-1 inhibitors: structure-activity relationship of P2' substituents” (Bioorg Med Chem Lett, 2010).
